Data: patent US20240269170A1, “Treatment of Inflammatory Conditions or Diseases” (Queen Mary University of London, priority 2021, published 2024)

Tested on: mononuclear phagocytes
Experiment: Phosphoproteomic analysis of GM-CSF differentiated human monocytes incubated with MCTR3 vs vehicle
Format: cell-based
Protocol: FIG. 5: MCTR3 reprograms the arthritic monocyte-derive macrophage transcriptome. A-B) Arthritis was induced and prolonged in C57BL/6 mice by administering 100 μL K/B×N serum i.p. on day 0, 2 and 9. Mice were treated on day 12 i.v. with 2×10^6 monocytes isolated from arthritic mice and incubated either with vehicle (PBS+0.1% DMSO) or 10 μM RG108, a DNMT inhibitor, for 15 min and then with a vehicle (PBS+0.1% EtOH) or 1 nM MCTR3 for 90 min (37° C.). Disease course was monitored daily by assessing A) clinical scores and B) oedema. Results are mean±SEM and expressed as percent change from day of treatment. n=10 mice per group. Statistical differences were evaluated using Two-way ANOVA. (C-E) K/B×N serum (100 μL, i.p.) was administered to mice on days 0, 2 and 9 to induce and prolong inflammatory arthritis. On day 12, mice were treated i.v. with 2×10^6 monocytes isolated from arthritic mice that were previously incubated with either vehicle (PBS+0.1% EtOH) or 1 nM MCTR3 for 90 min. Cells were isolated from paw joints on day 22, sorted for CD45^+ cells and single cell RNA sequencing was performed. […] Results are from n=4 mice per group. (F-G) Monocytes were isolated from human healthy volunteers, these cells were then incubated with GM-CSF (7 days, 37° C.) then with either Vehicle or MCTR3 (1 nM, 37° C.). Cells were lysed and the phosphoproteome determined using mass spectrometry. (F) GO Biological pathway analysis and (G) KEGG pathway analysis for proteins found to be differentially phosphorylated in cells incubated with MCTR3 when compared to those incubated with vehicle. Results are representative of cells from n=3 healthy volunteers per group
To further explore the mechanisms regulated by MCTR3 to reprogram mononuclear phagocytes we next evaluated the signaling pathways activated by MCTR3 using a phosphoproteomic approach. […] This regulation was also observed when using the Kyoto Encyclopaedia of Genes and Genomes pathway database that highlighted an enrichment of spliceosome linked proteins as well as proteins involved in mRNA surveillance by MCTR3. (FIG. 5G and Table 7). […] These findings indicate that MCTR3 promotes the reprograming of mononuclear phagocytes by both regulating epigenetic programs and protein translation to facilitate the termination of inflammation and joint protection. They also support the hypothesis that MCTR3-reprogrammed monocytes recruited into arthritic joints exert their activities via the upregulation of tissue protective pathways. […]
For evaluation of signalling pathways activated by MCTR3, monocytes were isolated from peripheral blood of healthy volunteers, incubated with GM-CSF (20 ng/ml, in RPMI containing 10% human serum) for 7 days and then incubated with MCTR3 (1 nM, in DPBS^+/+).
Phosphoproteomics experiments were performed using mass spectrometry. In brief, cells were lysed in 8M urea buffer and supplemented with phosphatase inhibitors (10 mM Na3VO4, 100 mM B-glycerol phosphate and 25 mM Na2H2P2O7 (Sigma)). Proteins were digested into peptides using trypsin. Phosphopeptides were enriched from total peptides by TiO2 chromatography. Dried phosphopeptides were dissolved in 0.1% TFA and analysed by nanoflow ultimate 3000 RSL nano instrument was coupled on-line to a Q Exactive plus mass spectrometer (Thermo Fisher Scientific). Gradient elution was from 3% to 35% buffer B in 120 min at a flow rate 300 nL/min with buffer A being used to balance the mobile phase (buffer A was 0.1% formic acid in water and B was 0.1% formic acid in acetonitrile). The spray voltage was 1.95 kV and the capillary temperature was set to 255° C. The Q-Exactive plus was operated in data dependent mode with one survey MS scan followed by 15 MS/MS scans. The full scans were acquired in the mass analyser at 375-1500m/z with the resolution of 70 000, and the MS/MS scans were obtained with a resolution of 17 500. […]

[1] = KEGG Pathway, differentially phosphorylated proteins, 1 nM MCTR3 vs vehicle
[2] = Reactome Gene Sets, differentially phosphorylated proteins, 1 nM MCTR3 vs vehicle

## CC/C=C\C/C=C\C[C@H](O)[C@@H](/C=C/C=C/C=C\C/C=C\CCC(=O)O)SC[C@H](N)C(=O)O [MCTR3, 13R-cysteinyl, 14S-hydroxy-4Z, 7Z, 9E, 11E, 13R, 14S, 16Z, 19Z-docosahexaenoic acid]
1 nM MCTR3
  phosphorylation status of SETD2, Histone deacetylase 1 and Histone deacetylase 2: regulated
  proteins involved in post-transcriptional regulation and protein translation (differential phosphorylation, GO analysis): marked regulation
[1]
  Endocytosis (ko04144) enrichment LogP: −3.117
  Fc gamma R-mediated phagocytosis (ko04666) enrichment LogP: −2.545
  Glycolysis, core module involving three-carbon compounds (M00002) enrichment LogP: −4.6043
  Guanine ribonucleotide biosynthesis IMP => GDP, GTP (M00050) enrichment LogP: −3.0343
  Herpes simplex infection (ko05168) enrichment LogP: −2.0881
  Neurotrophin signaling pathway (ko04722) enrichment LogP: −2.6025
  Notch signaling pathway (ko04330) enrichment LogP: −4.0393
  Spliceosome (hsa03040) enrichment LogP: −7.662
  Transcriptional misregulation in cancer (ko05202) enrichment LogP: −2.704
  mRNA surveillance pathway (ko03015) enrichment LogP: −3.284
  parathyroid hormone synthesis, secretion and action (hsa04928) enrichment LogP: −2.088
[2]
  Apoptotic execution phase (R-HSA-75153) enrichment LogP: −3.842
  COPII-mediated vesicle transport (R-HSA-204005) enrichment LogP: −2.4
  Diseases of signal transduction by growth factor receptors and second messengers (R-HSA-5663202) enrichment LogP: −4.434
  Estrogen-dependent gene expression (R-HSA-9018519) enrichment LogP: −2.633
  Formation of RNA Pol II elongation complex (R-HSA-112382) enrichment LogP: −4.381
  Initiation of Nuclear Envelope (NE) Reformation (R-HSA-2995383) enrichment LogP: −3.748
  Interferon gamma signaling (R-HSA-877300) enrichment LogP: −2.545
  Nervous system development (R-HSA-9675108) enrichment LogP: −3.151
  Neutrophil degranulation (R-HSA-6798695) enrichment LogP: −2.465
  Prolonged ERK activation events (R-HSA-169893) enrichment LogP: −2.935
  RHO GTPase Effectors (R-HSA-195258) enrichment LogP: −3.726
  Regulation of MECP2 expression and activity (R-HSA-9022692) enrichment LogP: −6.229
  SUMO E3 ligases SUMOylate target proteins (R-HSA-3108232) enrichment LogP: −6.009
  Signaling by NTRKs (R-HSA-166520) enrichment LogP: −5.116
  TRAF3-dependent IRF activation pathway (R-HSA-918233) enrichment LogP: −2.935
  Transcriptional Regulation by TP53 (R-HSA-3700989) enrichment LogP: −7.191
  Vesicle-mediated transport (R-HSA-5653656) enrichment LogP: −6.611
  p75 NTR receptor-mediated signalling (R-HSA-193704) enrichment LogP: −6.512
